Assay results as given in PubChem BioAssay AID248 (DTP/NCI, 2004).
Inconclusive results and toxic doses are left out.

Tested on: L1210 leukemia ip in BDF1 mice, survival T/C
Assay: NCI In Vivo Anticancer Drug Screen. Data for tumor model L1210 Leukemia (intraperitoneal) in B6D2F1 (BDF1) mice
Conditions: endpoint: mean survival time, higher = longer survival
Summary of the method: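 In this screen, tumor-bearing mice given compound are compared to those given vehicle, and their survival values are reported as a treated-to-control quotient.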

[1] = dose: 100.0 mg/kg/injection, schedule: Q01DX001 (ip), vehicle: saline
[2] = dose: 200.0 mg/kg/injection, schedule: Q01DX001 (ip), vehicle: saline
[3] = dose: 400.0 mg/kg/injection, schedule: Q01DX001 (ip), vehicle: saline
[4] = dose: 100.0 mg/kg/injection, schedule: Q04DX002 (ip), vehicle: gum acacia
[5] = dose: 200.0 mg/kg/injection, schedule: Q04DX002 (ip), vehicle: gum acacia
[6] = dose: 100.0 mg/kg/injection, schedule: Q04DX003 (ip), vehicle: Klucel (hydroxypropylcellulose) (HPC)
[7] = dose: 200.0 mg/kg/injection, schedule: Q04DX003 (ip), vehicle: Klucel (hydroxypropylcellulose) (HPC)
[8] = dose: 400.0 mg/kg/injection, schedule: Q04DX003 (ip), vehicle: Klucel (hydroxypropylcellulose) (HPC)

Cc1cc(/C=C\[N+](=O)[O-])c(C)c2c1oc1ccccc12
T/C [1]: 88 % of control
T/C [2]: 96 % of control
T/C [3]: 88 % of control

c1ncc(OCCN2CC2)nc1OCCN1CC1
T/C (dose: 0.12 mg/kg/injection, schedule: Q01DX009 (ip), vehicle: carboxymethylcellulose (CMC)): 102 % of control
T/C (dose: 0.25 mg/kg/injection, schedule: Q01DX009 (ip), vehicle: carboxymethylcellulose (CMC)): 108 % of control
T/C (dose: 0.5 mg/kg/injection, schedule: Q01DX009 (ip), vehicle: carboxymethylcellulose (CMC)): 102 % of control
T/C (dose: 0.5 mg/kg/injection, schedule: Q01DX009 (ip), vehicle: saline): 97 % of control
T/C (dose: 1.0 mg/kg/injection, schedule: Q01DX009 (ip), vehicle: carboxymethylcellulose (CMC)): 95 % of control
T/C (dose: 1.0 mg/kg/injection, schedule: Q01DX009 (ip), vehicle: saline): 97 % of control
T/C (dose: 3.0 mg/kg/injection, schedule: Q01DX009 (ip), vehicle: saline): 156 % of control
T/C (dose: 11.1 mg/kg/injection, schedule: Q01DX001 (ip), vehicle: carboxymethylcellulose (CMC)): 124 % of control
T/C (dose: 11.1 mg/kg/injection, schedule: Q01DX001 (ip), vehicle: saline): 120 % of control

CCCC(C(=O)O)(c1ccccc1)c1ccccc1
T/C [4]: 96 % of control
T/C [5]: 104 % of control

COc1cc2nccc3c4ccccc4n(c1=O)c23
T/C (dose: 50.0 mg/kg/injection, schedule: Q01DX001 (ip), vehicle: saline): 97 % of control
T/C [1]: 101 % of control
T/C [2]: 101 % of control
T/C [3]: 97 % of control

COC(=O)NS(=O)(=O)c1cccn1C
T/C (dose: 100.0 mg/kg/injection, schedule: Q01DX001 (ip), vehicle: Klucel (hydroxypropylcellulose) (HPC)): 106 % of control
T/C [6]: 106 % of control
T/C (dose: 200.0 mg/kg/injection, schedule: Q01DX001 (ip), vehicle: Klucel (hydroxypropylcellulose) (HPC)): 104 % of control
T/C [7]: 100 % of control
T/C (dose: 400.0 mg/kg/injection, schedule: Q01DX001 (ip), vehicle: Klucel (hydroxypropylcellulose) (HPC)): 104 % of control
T/C [8]: 95 % of control

O=C(Nc1cccc(Cl)c1)c1ccc(Cl)c(Cl)c1
T/C (dose: 100.0 mg/kg/injection, schedule: Q04DX002 (ip), vehicle: Klucel (hydroxypropylcellulose) (HPC)): 110 % of control
T/C (dose: 200.0 mg/kg/injection, schedule: Q04DX002 (ip), vehicle: Klucel (hydroxypropylcellulose) (HPC)): 113 % of control
T/C (dose: 400.0 mg/kg/injection, schedule: Q04DX002 (ip), vehicle: Klucel (hydroxypropylcellulose) (HPC)): 93 % of control

COC(=O)c1cccc2c1C1CCC2c2cccc(C(=O)OC)c21
T/C [4]: 101 % of control
T/C [5]: 96 % of control
T/C (dose: 400.0 mg/kg/injection, schedule: Q04DX002 (ip), vehicle: gum acacia): 99 % of control

CCCCC[Si](C)(C)C
T/C [1]: 103 % of control
T/C [2]: 97 % of control
T/C [3]: 105 % of control

CCCCCCCCCC(F)CCCCCCCC(=O)O (configuration not stated) (tested in a mixture with another compound)
T/C [1]: 91 % of control
T/C [2]: 91 % of control
T/C [3]: 95 % of control

C=CCc1c(C)nc(N)[nH]c1=O
T/C [6]: 104 % of control
T/C [7]: 107 % of control
T/C [8]: 102 % of control

CC(C)/C=N/N=C(N)N
T/C (dose: 120.0 mg/kg/injection, schedule: Q01DX Z (oral), vehicle: saline): 113 % of control
T/C (dose: 240.0 mg/kg/injection, schedule: Q01DX Z (oral), vehicle: saline): 104 % of control

CCN(CC)C(C)(C)CCl
T/C [1]: 104 % of control
